# Assay results published in patent US12077503B2, “Substituted cyclic amides and their use as herbicides” (FMC CORPORATION, priority 2015, dated 2024).
# Key:
# Test in all cases: Test C preemergence
# Assay type in all cases: in vivo
# [1] = tested on: soybean (Glycine max); conditions: for Plant response rating, Soybean: scale 0 to 100, 0 no effect, 100 complete control
# Outline: (§1)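 Preemergence application to seeds in loam/sand soil, or foliar (postemergence) application to plants 2–18 cm tall in peat moss/vermiculite medium; surfactant-containing non-phytotoxic solvent vehicle; greenhouse. Visual injury vs controls at 13–15 d; 0 = no effect, 100 = complete control.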
# [2] = tested on: crabgrass, large (large crabgrass, Digitaria sanguinalis); conditions: for Plant response rating, Crabgrass, Large: scale 0 to 100, 0 no effect, 100 complete control
# Outline: as §1
# [3] = tested on: blackgrass (Alopecurus myosuroides); conditions: for Plant response rating, Blackgrass: scale 0 to 100, 0 no effect, 100 complete control
# Outline: as §1
# [4] = tested on: wheat (winter wheat, Triticum aestivum); conditions: for Plant response rating, Wheat: scale 0 to 100, 0 no effect, 100 complete control
# Outline: as §1
# [5] = tested on: waterhemp (common waterhemp, Amaranthus rudis); conditions: for Plant response rating, Waterhemp: scale 0 to 100, 0 no effect, 100 complete control
# Outline: as §1
# [6] = tested on: foxtail, giant (giant foxtail, Setaria faberii); conditions: for Plant response rating, Foxtail, Giant: scale 0 to 100, 0 no effect, 100 complete control
# Outline: as §1
# [7] = tested on: nutsedge, yellow (yellow nutsedge, Cyperus esculentus); conditions: for Plant response rating, Nutsedge, Yellow: scale 0 to 100, 0 no effect, 100 complete control
# Outline: as §1
# [8] = tested on: pigweed (Amaranthus retroflexus); conditions: for Plant response rating, Pigweed: scale 0 to 100, 0 no effect, 100 complete control
# Outline: as §1
# [9] = tested on: oilseed rape (Brassica napus); conditions: for Plant response rating, Oilseed Rape: scale 0 to 100, 0 no effect, 100 complete control
# Outline: as §1
# [10] = tested on: morningglory (Ipomoea coccinea); conditions: for Plant response rating, Morningglory: scale 0 to 100, 0 no effect, 100 complete control
# Outline: as §1
# [11] = tested on: barnyardgrass (Echinochloa crus-galli); conditions: for Plant response rating, Barnyardgrass: scale 0 to 100, 0 no effect, 100 complete control
# Outline: as §1
# [12] = tested on: ryegrass, Italian (Italian ryegrass, Lolium multiflorum); conditions: for Plant response rating, Ryegrass, Italian: scale 0 to 100, 0 no effect, 100 complete control
# Outline: as §1
# [13] = tested on: johnsongrass (Sorghum halepense); conditions: for Plant response rating, Johnsongrass: scale 0 to 100, 0 no effect, 100 complete control
# Outline: as §1
# [14] = tested on: ragweed (common ragweed, Ambrosia elatior); conditions: for Plant response rating, Ragweed: scale 0 to 100, 0 no effect, 100 complete control
# Outline: as §1
# [15] = tested on: velvetleaf (Abutilon theophrasti); conditions: for Plant response rating, Velvetleaf: scale 0 to 100, 0 no effect, 100 complete control
# Outline: as §1
# [16] = tested on: Galium (catchweed bedstraw, Galium aparine); conditions: for Plant response rating, Galium: scale 0 to 100, 0 no effect, 100 complete control
# Outline: as §1
# [17] = tested on: corn (Zea mays); conditions: for Plant response rating, Corn: scale 0 to 100, 0 no effect, 100 complete control
# Outline: as §1
# [18] = 31 g ai/ha, 0 is no effect, 100 is complete control
structure (smiles),measurement,setting,value
O=C1NCC(c2cccc(OC(F)F)c2)C1C(=O)Nc1ccc(F)cc1F (centres unmarked) [Compound 421],"Plant response rating, Soybean",[1]; 62 g ai/ha,0
same,"Plant response rating, Soybean",[1]; 125 g ai/ha,0
same,"Plant response rating, Soybean",[1]; 250 g ai/ha,10
same,"Plant response rating, Crabgrass, Large",[2]; 31 g ai/ha,90
same,"Plant response rating, Crabgrass, Large",[2]; 62 g ai/ha,95
same,"Plant response rating, Crabgrass, Large",[2]; 125 g ai/ha,90
same,"Plant response rating, Crabgrass, Large",[2]; 250 g ai/ha,95
same,"Plant response rating, Blackgrass",[3]; 31 g ai/ha,40
same,"Plant response rating, Blackgrass",[3]; 62 g ai/ha,45
same,"Plant response rating, Blackgrass",[3]; 125 g ai/ha,70
same,"Plant response rating, Blackgrass",[3]; 250 g ai/ha,70
same,"Plant response rating, Wheat",[4]; 62 g ai/ha,0
same,"Plant response rating, Wheat",[4]; 125 g ai/ha,25
same,"Plant response rating, Wheat",[4]; 250 g ai/ha,40
same,"Plant response rating, Waterhemp",[5]; 62 g ai/ha,30
same,"Plant response rating, Waterhemp",[5]; 125 g ai/ha,80
same,"Plant response rating, Waterhemp",[5]; 250 g ai/ha,85
same,"Plant response rating, Foxtail, Giant",[6]; 31 g ai/ha,80
same,"Plant response rating, Foxtail, Giant",[6]; 62 g ai/ha,85
same,"Plant response rating, Foxtail, Giant",[6]; 125 g ai/ha,85
same,"Plant response rating, Foxtail, Giant",[6]; 250 g ai/ha,90
same,"Plant response rating, Nutsedge, Yellow",[7]; 31 g ai/ha,0
same,"Plant response rating, Nutsedge, Yellow",[7]; 62 g ai/ha,0
same,"Plant response rating, Nutsedge, Yellow",[7]; 125 g ai/ha,0
same,"Plant response rating, Nutsedge, Yellow",[7]; 250 g ai/ha,0
same,"Plant response rating, Pigweed",[8]; 31 g ai/ha,0
same,"Plant response rating, Pigweed",[8]; 62 g ai/ha,0
same,"Plant response rating, Pigweed",[8]; 125 g ai/ha,35
same,"Plant response rating, Pigweed",[8]; 250 g ai/ha,60
same,"Plant response rating, Oilseed Rape",[9]; 31 g ai/ha,10
same,"Plant response rating, Oilseed Rape",[9]; 62 g ai/ha,25
same,"Plant response rating, Oilseed Rape",[9]; 125 g ai/ha,30
same,"Plant response rating, Oilseed Rape",[9]; 250 g ai/ha,35
same,"Plant response rating, Morningglory",[10]; 31 g ai/ha,0
same,"Plant response rating, Morningglory",[10]; 62 g ai/ha,0
same,"Plant response rating, Morningglory",[10]; 125 g ai/ha,15
same,"Plant response rating, Morningglory",[10]; 250 g ai/ha,20
same,"Plant response rating, Barnyardgrass",[11]; 31 g ai/ha,60
same,"Plant response rating, Barnyardgrass",[11]; 62 g ai/ha,80
same,"Plant response rating, Barnyardgrass",[11]; 125 g ai/ha,90
same,"Plant response rating, Barnyardgrass",[11]; 250 g ai/ha,95
same,"Plant response rating, Ryegrass, Italian",[12]; 62 g ai/ha,40
same,"Plant response rating, Ryegrass, Italian",[12]; 125 g ai/ha,35
same,"Plant response rating, Ryegrass, Italian",[12]; 250 g ai/ha,65
same,"Plant response rating, Johnsongrass",[13]; 31 g ai/ha,0
same,"Plant response rating, Johnsongrass",[13]; 62 g ai/ha,0
same,"Plant response rating, Johnsongrass",[13]; 125 g ai/ha,0
same,"Plant response rating, Johnsongrass",[13]; 250 g ai/ha,0
same,"Plant response rating, Ragweed",[14]; 31 g ai/ha,0
same,"Plant response rating, Ragweed",[14]; 62 g ai/ha,30
same,"Plant response rating, Ragweed",[14]; 125 g ai/ha,40
same,"Plant response rating, Ragweed",[14]; 250 g ai/ha,60
same,"Plant response rating, Velvetleaf",[15]; 62 g ai/ha,20
same,"Plant response rating, Velvetleaf",[15]; 125 g ai/ha,20
same,"Plant response rating, Velvetleaf",[15]; 250 g ai/ha,40
same,"Plant response rating, Galium",[16]; 31 g ai/ha,0
same,"Plant response rating, Galium",[16]; 62 g ai/ha,0
same,"Plant response rating, Galium",[16]; 125 g ai/ha,55
same,"Plant response rating, Galium",[16]; 250 g ai/ha,45
same,"Plant response rating, Corn",[17]; 31 g ai/ha,0
same,"Plant response rating, Corn",[17]; 62 g ai/ha,0
same,"Plant response rating, Corn",[17]; 125 g ai/ha,60
same,"Plant response rating, Corn",[17]; 250 g ai/ha,75
O=C1NCC(c2cc(F)cc(C(F)(F)F)c2)C1C(=O)Nc1cccc(F)c1F (centres unmarked) [Compound 488],"Plant response rating (scale of 0 to 100), Soybean",[1]; [18],0
same,"Plant response rating, Soybean",[1]; 62 g ai/ha,0
same,"Plant response rating, Soybean",[1]; 125 g ai/ha,0
same,"Plant response rating, Soybean",[1]; 250 g ai/ha,10
same,"Plant response rating (scale of 0 to 100), Crabgrass, Large",[2]; [18],90
same,"Plant response rating, Crabgrass, Large",[2]; 62 g ai/ha,95
same,"Plant response rating, Crabgrass, Large",[2]; 125 g ai/ha,95
same,"Plant response rating, Crabgrass, Large",[2]; 250 g ai/ha,100
same,"Plant response rating (scale of 0 to 100), Blackgrass",[3]; [18],0
same,"Plant response rating, Blackgrass",[3]; 62 g ai/ha,50
same,"Plant response rating, Blackgrass",[3]; 125 g ai/ha,90
same,"Plant response rating, Blackgrass",[3]; 250 g ai/ha,85
same,"Plant response rating (scale of 0 to 100), Wheat",[4]; [18],35
same,"Plant response rating, Wheat",[4]; 62 g ai/ha,35
same,"Plant response rating, Wheat",[4]; 125 g ai/ha,85
same,"Plant response rating, Wheat",[4]; 250 g ai/ha,90
same,"Plant response rating (scale of 0 to 100), Waterhemp",[5]; [18],25
same,"Plant response rating, Waterhemp",[5]; 62 g ai/ha,40
same,"Plant response rating, Waterhemp",[5]; 125 g ai/ha,75
same,"Plant response rating, Waterhemp",[5]; 250 g ai/ha,80
same,"Plant response rating (scale of 0 to 100), Foxtail, Giant",[6]; [18],85
same,"Plant response rating, Foxtail, Giant",[6]; 62 g ai/ha,90
same,"Plant response rating, Foxtail, Giant",[6]; 125 g ai/ha,90
same,"Plant response rating, Foxtail, Giant",[6]; 250 g ai/ha,95
same,"Plant response rating (scale of 0 to 100), Nutsedge, Yellow",[7]; [18],0
same,"Plant response rating, Nutsedge, Yellow",[7]; 62 g ai/ha,0
same,"Plant response rating, Nutsedge, Yellow",[7]; 125 g ai/ha,0
same,"Plant response rating, Nutsedge, Yellow",[7]; 250 g ai/ha,0
same,"Plant response rating (scale of 0 to 100), Pigweed",[8]; [18],20
same,"Plant response rating, Pigweed",[8]; 62 g ai/ha,75
same,"Plant response rating, Pigweed",[8]; 125 g ai/ha,70
same,"Plant response rating, Pigweed",[8]; 250 g ai/ha,85
same,"Plant response rating (scale of 0 to 100), Oilseed Rape",[9]; [18],40
same,"Plant response rating, Oilseed Rape",[9]; 62 g ai/ha,45
same,"Plant response rating, Oilseed Rape",[9]; 125 g ai/ha,85
same,"Plant response rating, Oilseed Rape",[9]; 250 g ai/ha,90
same,"Plant response rating (scale of 0 to 100), Morningglory",[10]; [18],0
same,"Plant response rating, Morningglory",[10]; 62 g ai/ha,25
same,"Plant response rating, Morningglory",[10]; 125 g ai/ha,55
same,"Plant response rating, Morningglory",[10]; 250 g ai/ha,60
same,"Plant response rating (scale of 0 to 100), Barnyardgrass",[11]; [18],95
same,"Plant response rating, Barnyardgrass",[11]; 62 g ai/ha,90
same,"Plant response rating, Barnyardgrass",[11]; 125 g ai/ha,95
same,"Plant response rating, Barnyardgrass",[11]; 250 g ai/ha,95
same,"Plant response rating (scale of 0 to 100), Ryegrass, Italian",[12]; [18],5
same,"Plant response rating, Ryegrass, Italian",[12]; 62 g ai/ha,35
same,"Plant response rating, Ryegrass, Italian",[12]; 125 g ai/ha,70
same,"Plant response rating, Ryegrass, Italian",[12]; 250 g ai/ha,65
same,"Plant response rating (scale of 0 to 100), Johnsongrass",[13]; [18],70
same,"Plant response rating, Johnsongrass",[13]; 62 g ai/ha,80
same,"Plant response rating, Johnsongrass",[13]; 125 g ai/ha,85
same,"Plant response rating, Johnsongrass",[13]; 250 g ai/ha,90
same,"Plant response rating (scale of 0 to 100), Ragweed",[14]; [18],0
same,"Plant response rating, Ragweed",[14]; 62 g ai/ha,25
same,"Plant response rating, Ragweed",[14]; 125 g ai/ha,40
same,"Plant response rating, Ragweed",[14]; 250 g ai/ha,70
same,"Plant response rating (scale of 0 to 100), Velvetleaf",[15]; [18],0
same,"Plant response rating, Velvetleaf",[15]; 62 g ai/ha,0
same,"Plant response rating, Velvetleaf",[15]; 125 g ai/ha,10
same,"Plant response rating, Velvetleaf",[15]; 250 g ai/ha,20
same,"Plant response rating (scale of 0 to 100), Galium",[16]; [18],80
same,"Plant response rating, Galium",[16]; 62 g ai/ha,85
same,"Plant response rating, Galium",[16]; 125 g ai/ha,85
same,"Plant response rating, Galium",[16]; 250 g ai/ha,85
same,"Plant response rating (scale of 0 to 100), Corn",[17]; [18],25
same,"Plant response rating, Corn",[17]; 62 g ai/ha,60
same,"Plant response rating, Corn",[17]; 125 g ai/ha,70
same,"Plant response rating, Corn",[17]; 250 g ai/ha,85
